{"source": "patent US20250320246A1", "about": "“3-AZASTEROID COMPOUNDS FOR THE TREATMENT OF DISEASES RELATED TO MITROCHONDRIAL FUNCTION” (NZP UK LIMITED, priority 2022, published 2025)", "key": {"[1]": {"test_system": "sporadic PD patient fibroblasts", "test": "Mitochondrial membrane potential (MMP, TMRM) in sporadic PD patient fibroblasts", "assay_type": "cell-based, human", "details": "24 h, 3 sporadic PD patient fibroblasts; for pEC50: 8-point range 0.06 nM-300 nM; for Emax: max response with highest dose of compound (300 nM), read-out: MMP % of vehicle, top %; for activity at 60 pM: max response with lowest dose of compound (0.06 nM), read-out: MMP % of vehicle, bottom %", "experimental": "(§1) Primary fibroblast cells were cultured continuously in Glucose based medium (high glucose (4500 mg/L) Dulbecco's Modified Eagle's medium (DMEM; Sigma-Aldrich) supplemented with 10% fetal bovine serum (Sigma-Aldrich), 100 IU/mL penicillin, 100 μg/mL streptomycin (Lonza), 1 mM sodium pyruvate (Sigma-Aldrich) and 50 μg/mL uridine (Sigma-Aldrich)). Unless otherwise stated, 24 hours prior to analysis, the Glucose based medium was exchanged for Galactose based medium (glucose-free DMEM (Gibco) with the same supplementation and in addition, 5 mM galactose (Sigma-Aldrich)). All cells were assessed between passage 6-10.\nFibroblasts were cultured and plated into a greiner black 384 μClear® plate at a concentration of 1000 cells per well in 50 μl of media volume. The plates are left overnight in an incubator to allow the fibroblasts to adhere to the plate surface. The following morning the Glucose based medium is replaced with 25 μl of Galactose based medium. The plates were then dosed with the compounds using an ECHO® 550 liquid handling system. The wells were dosed to provide an 8-point concentration range of 0.06 nM-300 nM of compound. After dosing the wells are topped up with a further 25 μl of Galactose based medium and then left in an incubator for 24 hours. After 24 hours, the medium is removed from the wells and replaced with 25 μl phenol free Minimal essential medium supplemented with 10% FBS, 1% Penicillin-streptomycin, 1% sodium pyruvate, 0.1% uridine, 1% non-essential amino acids and 1% MEM vitamins with 80 nM TMRM (Sigma) and 10 μM Hoechst Stain (Sigma). The plate is returned to the incubator for another hour after which the stain medium is removed and replaced with 25 μl Phenol free MEM. The plate is then imaged using an IN Cell high content microscope (GE Healthcare) with fields of view per well in 2 channels, Cy3 excitation 542 nm, emission 604-64 nm; and the DAPI excitation 350 nm, emission 450-55 nm at 37° C. with CO2. After imaging the plate is disposed of and the images are Data mined using the INCell developer Toolkit (GE Healthcare).\nAfter the assays had been repeated in triplicate per line and compound the data was then inputted into Graph pad Prism 7 software suite where a dose response curve is generated using the default “[Agonist] vs response(three parameters)” equation. […]"}, "[2]": {"test_system": "sporadic PD patient fibroblasts", "test": "Cellular ATP levels in sporadic PD patient fibroblasts, full ATP assay", "assay_type": "cell-based, human", "details": "24 h, 3 sporadic PD patient fibroblasts; for pEC50: 8-point range 0.06 nM-300 nM; for Emax at 0.3 µM: max response with highest dose of compound (300 nM), read-out: ATP % of vehicle, top %; for activity at 60 pM: max response with lowest dose of compound (0.06 nM), read-out: ATP % of vehicle, bottom %", "experimental": "as §1\nThe ATP protocol is generally as described in Mortiboys et al 2008. Briefly, fibroblasts were cultured as and plated into white 384 well plates at a concentration of 5000 cells per well in 50 μl of media volume. The plates are left overnight in an incubator to allow the fibroblasts to adhere to the plate surface. The following morning the Glucose based medium is replaced with 25 μl of Galactose based medium. The plates were then spiked with the compounds using a ECHO 550 liquid handling system. The wells were dosed to provide an 8-point concentration range of 0.06 nM-300 nM of compound. After dosing the wells are topped up with a further 25 μl of Galactose based medium and then left in an incubator for 24 hours. Following this incubation, the medium is removed from the plate and the wells are washed twice with sterile PBS. The wells are filled with 25 μl of Sterile PBS followed by 12.5 μl of Lysis solution from the ATPlite™ Luminescence ATP detection assay system (Perkin Elmer), including 16 cell free wells to use as blank controls. The plate is then placed on a rotary shaker for 5 mins at 700 rpm. Following the shaking 12.5 μl of ATP substrate solution (Perkin Elmer) is added to each well and a further 5 min of shaking. The plate is then placed in darkness for 10 minutes prior to reading. Using a PHERAStar® plate reader, luminescence intensity is recorded. Following the ATP assay the plates are immediately assayed for DNA content in a CyQUANT® assay.\nImmediately following The ATP assay DNA content is assessed with the CyQUANT® NF Cell Proliferation Assay Kit (ThermoFisher). CyQUANT® buffer is prepared immediately before the assay and is comprised of 1 μl CyQUANT® dye per ml×1 HBSS solution. 12.5 μl of CyQUANT® buffer is added to each well. Plate left in incubator for 1 hour then read on a PHERAStar© Plate reader with excitation at 497 nm and emission at 520 nm.\nATP Quantification for each well is determined using the following formula: […]\nAfter the assays had been repeated in triplicate per line and compound the data was then inputted into Graph pad Prism 7 software suite where a dose response curve is generated using the default “[Agonist] vs response(three parameters)” equation.\nFrom this EC50 values, lowest response and maximal response were taken and used to calculate the Geometric mean between the 5 different lines assessed."}}, "note": "pEC50: −log10 of the molar value. Where a name gives a salt, the structure may show the parent alone."}
{"smiles": "C[C@H](CCC(=O)O)[C@H]1CC[C@H]2[C@@H]3[C@@H](O)C[C@@H]4CN(C(=O)[C@@H](N)Cc5ccc(O)cc5)CC[C@]4(C)[C@H]3CC[C@]12C", "note": "[Compound 45a, N-[(2S)-2-Amino-3-(4-hydroxyphenyl)propanoyl]-3-aza-7β-hydroxy-5β-cholan-24-oic acid hydrotrifluoroacetate]", "values": [{"measurement": "pEC50", "setting": "[1]; Homo sapiens, Fibroblast", "result": 9.74}, {"measurement": "Emax", "setting": "[1]; Homo sapiens, Fibroblast", "result": 95.1, "unit": "%"}, {"measurement": "activity at 60 pM", "setting": "[1]; Homo sapiens, Fibroblast", "result": 82.3, "unit": "%"}, {"measurement": "pEC50", "setting": "[2]; Homo sapiens, Fibroblast", "result": 9.60}, {"measurement": "Emax at 0.3 µM", "setting": "[2]; Homo sapiens, Fibroblast", "result": 97.2, "unit": "%"}, {"measurement": "activity at 60 pM", "setting": "[2]; Homo sapiens, Fibroblast", "result": 83.8, "unit": "%"}]}
{"smiles": "C[C@H](CCCC(=O)O)[C@H]1CC[C@H]2[C@@H]3[C@@H](O)C[C@@H]4CN(C)CC[C@]4(C)[C@H]3CC[C@]12C", "note": "[Compound 31b, N-Methyl-3-aza-7β-hydroxy-25-homo-5β-cholan-25-oic acid hydrotrifluoroacetate]", "values": [{"measurement": "pEC50", "setting": "[1]; Homo sapiens, Fibroblast", "result": 8.21}, {"measurement": "Emax", "setting": "[1]; Homo sapiens, Fibroblast", "result": 95.1, "unit": "%"}, {"measurement": "activity at 60 pM", "setting": "[1]; Homo sapiens, Fibroblast", "result": 86.5, "unit": "%"}, {"measurement": "pEC50", "setting": "[2]; Homo sapiens, Fibroblast", "result": 9.58}, {"measurement": "Emax at 0.3 µM", "setting": "[2]; Homo sapiens, Fibroblast", "result": 161, "unit": "%"}, {"measurement": "activity at 60 pM", "setting": "[2]; Homo sapiens, Fibroblast", "result": 91.7, "unit": "%"}]}
{"smiles": "CC(C)[C@H](N)C(=O)N1CC[C@@]2(C)[C@H](C[C@H](O)[C@@H]3[C@@H]2CC[C@]2(C)[C@@H]([C@H](C)CCCC(=O)O)CC[C@@H]32)C1", "note": "[Compound 41b, N-[(2S)-2-Amino-3-methylbutanoyl]-3-aza-7β-hydroxy-25-homo-5β-cholan-25-oic acid hydrotrifluoroacetate]", "values": [{"measurement": "activity at 60 pM", "setting": "[1]; Homo sapiens, Fibroblast", "result": 84.6, "unit": "%"}, {"measurement": "activity at 60 pM", "setting": "[2]; Homo sapiens, Fibroblast", "result": 78.9, "unit": "%"}]}
{"smiles": "C[C@H](CCC(=O)O)[C@H]1CC[C@H]2[C@@H]3[C@@H](O)C[C@@H]4CN(C(=O)CO)CC[C@]4(C)[C@H]3CC[C@]12C", "note": "[Compound 40a, N-Glycolyl-3-aza-7β-hydroxy-5β-cholan-24-oic acid]", "values": [{"measurement": "pEC50", "setting": "[1]; Homo sapiens, Fibroblast", "result": 7.19}, {"measurement": "Emax", "setting": "[1]; Homo sapiens, Fibroblast", "result": 106, "unit": "%"}, {"measurement": "activity at 60 pM", "setting": "[1]; Homo sapiens, Fibroblast", "result": 93.5, "unit": "%"}, {"measurement": "pEC50", "setting": "[2]; Homo sapiens, Fibroblast", "result": 7.64}, {"measurement": "Emax at 0.3 µM", "setting": "[2]; Homo sapiens, Fibroblast", "result": 103, "unit": "%"}, {"measurement": "activity at 60 pM", "setting": "[2]; Homo sapiens, Fibroblast", "result": 89.9, "unit": "%"}]}
{"smiles": "C[C@H](CCC(=O)O)[C@H]1CC[C@H]2[C@@H]3[C@@H](O)C[C@@H]4CN(C(=O)[C@@H](N)Cc5c[nH]c6ccccc56)CC[C@]4(C)[C@H]3CC[C@]12C", "note": "[Compound 44a, N-[(2S)-2-Amino-3-(1H-indol-3-yl)propanoyl]-3-aza-7β-hydroxy-5β-cholan-24-oic acid hydrotrifluoroacetate]", "values": [{"measurement": "pEC50", "setting": "[1]; Homo sapiens, Fibroblast", "result": 10.05}, {"measurement": "Emax", "setting": "[1]; Homo sapiens, Fibroblast", "result": 102, "unit": "%"}, {"measurement": "activity at 60 pM", "setting": "[1]; Homo sapiens, Fibroblast", "result": 73.5, "unit": "%"}, {"measurement": "pEC50", "setting": "[2]; Homo sapiens, Fibroblast", "result": 9.64}, {"measurement": "Emax at 0.3 µM", "setting": "[2]; Homo sapiens, Fibroblast", "result": 122, "unit": "%"}, {"measurement": "activity at 60 pM", "setting": "[2]; Homo sapiens, Fibroblast", "result": 65.1, "unit": "%"}]}
{"smiles": "CC(C)C[C@H](N)C(=O)N1CC[C@@]2(C)[C@H](C[C@H](O)[C@@H]3[C@@H]2CC[C@]2(C)[C@@H]([C@H](C)CCC(=O)O)CC[C@@H]32)C1", "note": "[Compound 43a, N-[(2S)-2-Amino-4-methylpentanoyl]-3-aza-7β-hydroxy-5β-cholan-24-oic acid hydrotrifluoroacetate]", "values": [{"measurement": "pEC50", "setting": "[1]; Homo sapiens, Fibroblast", "result": 9.70}, {"measurement": "Emax", "setting": "[1]; Homo sapiens, Fibroblast", "result": 100, "unit": "%"}, {"measurement": "activity at 60 pM", "setting": "[1]; Homo sapiens, Fibroblast", "result": 84.1, "unit": "%"}, {"measurement": "pEC50", "setting": "[2]; Homo sapiens, Fibroblast", "result": 8.05}, {"measurement": "Emax at 0.3 µM", "setting": "[2]; Homo sapiens, Fibroblast", "result": 86, "unit": "%"}, {"measurement": "activity at 60 pM", "setting": "[2]; Homo sapiens, Fibroblast", "result": 90.2, "unit": "%"}]}
{"smiles": "CC[C@H](C)[C@H](N)C(=O)N1CC[C@@]2(C)[C@H](C[C@H](O)[C@@H]3[C@@H]2CC[C@]2(C)[C@@H]([C@H](C)CCCC(=O)O)CC[C@@H]32)C1", "note": "[Compound 42b, N-[(2S,3S)-2-Amino-3-methylpentanoyl]-3-aza-7β-hydroxy-25-homo-5β-cholan-25-oic acid hydrotrifluoroacetate]", "values": [{"measurement": "pEC50", "setting": "[1]; Homo sapiens, Fibroblast", "result": 8.29}, {"measurement": "Emax", "setting": "[1]; Homo sapiens, Fibroblast", "result": 96.6, "unit": "%"}, {"measurement": "activity at 60 pM", "setting": "[1]; Homo sapiens, Fibroblast", "result": 92.2, "unit": "%"}, {"measurement": "pEC50", "setting": "[2]; Homo sapiens, Fibroblast", "result": 7.60}, {"measurement": "Emax at 0.3 µM", "setting": "[2]; Homo sapiens, Fibroblast", "result": 98.5, "unit": "%"}, {"measurement": "activity at 60 pM", "setting": "[2]; Homo sapiens, Fibroblast", "result": 91.3, "unit": "%"}]}
{"smiles": "CC[C@H](C)[C@H](N)C(=O)N1CC[C@@]2(C)[C@H](C[C@H](O)[C@@H]3[C@@H]2CC[C@]2(C)[C@@H]([C@H](C)CCC(=O)O)CC[C@@H]32)C1", "note": "[Compound 42a, N-[(2S,3S)-2-Amino-3-methylpentanoyl]-3-aza-7β-hydroxy-5β-cholan-24-oic acid hydrotrifluoroacetate]", "values": [{"measurement": "pEC50", "setting": "[1]; Homo sapiens, Fibroblast", "result": 6.89}, {"measurement": "Emax", "setting": "[1]; Homo sapiens, Fibroblast", "result": 69.2, "unit": "%"}, {"measurement": "activity at 60 pM", "setting": "[1]; Homo sapiens, Fibroblast", "result": 71.3, "unit": "%"}, {"measurement": "pEC50", "setting": "[2]; Homo sapiens, Fibroblast", "result": 6.87}, {"measurement": "Emax at 0.3 µM", "setting": "[2]; Homo sapiens, Fibroblast", "result": 64.5, "unit": "%"}, {"measurement": "activity at 60 pM", "setting": "[2]; Homo sapiens, Fibroblast", "result": 89.6, "unit": "%"}]}
{"smiles": "C[C@H](CCC(=O)O)[C@H]1CC[C@H]2[C@@H]3[C@@H](O)C[C@@H]4CN(C)CC[C@]4(C)[C@H]3CC[C@]12C", "note": "[Compound 33, N-Methyl-3-aza-7β-hydroxy-5β-cholan-24-oic acid hydrochloride]", "values": [{"measurement": "pEC50", "setting": "[1]; hydrochloride", "result": 7.74}, {"measurement": "activity at 60 pM", "setting": "[1]; Homo sapiens, Fibroblast", "result": 82.3, "unit": "%"}, {"measurement": "pEC50", "setting": "[2]; hydrochloride", "result": 9.12}, {"measurement": "activity at 60 pM", "setting": "[2]; Homo sapiens, Fibroblast", "result": 88.8, "unit": "%"}]}
